Data as given in patent US4189497A, “Method of treating arthritic disease” (American Cyanamid Company, priority 1978, dated 1980).
Values belong to the compound of their own block, whether it stands above or below them.

Test system: Adjuvant Arthritis in Rats
Assay: Adjuvant induced arthritis in rats (Freund's adjuvant, right hind paw)
Description: Adjuvant induced experimental polyarthritis is a specific systemic disease of the rat which shares interesting similarities with rheumatoid arthritis. Specifically, the histology of the two diseases bears a remarkable resemblance as shown by C. M. Pearson et al., Am. J. Pathol. 42, 73 (1963). E. M. Glenn, Am. J. Vet. Res. 27 (116) 339 (1966) has classified adjuvant induced polyarthritis as a crippling and permanent deformity resulting from diffuse connective tissue involvement around certain susceptible joints in the rat. Zahiri et al., Can. Med. Ass. J. 101, 269 (1969) have shown that the fusiform swelling of the distal joints is associated with edema, congestion and synovitis including pannus formation, all of which precede the ultimate destruction of bone and cartilage. Furthermore, Zahiri et al. indicate that the cartilage destruction in the joint is due to an invasive pannus which originates in the marginal synovium and extends across the articular surface to erode it. […] See S. Wong et al., J. Pharm. & Exptl. Ther. 185, 127 (1973) and G. R. Bobalick et al., Agents & Actions 4, 364 (1974).
Groups of three Royal Hart, Wistar strain rats weighing 200±10 grams each were injected intradermally in the right hind paw with Freund's adjuvant (dried human tubercle bacilli in a mineral oil vehicle) at a dose of 2 mg./kg. of body weight. Test compound was administered orally in a 1.5% starch vehicle at various doses once daily on days 0 through 13 post challenge. […] On the 14th and 21st day post challenge the diameter of the injected paw (primary lesion) was measured by micrometer caliper. The volume of inflamed paws were estimated from these measurements and the results are expressed as percent inhibition of swelling as compared to controls. At the same time, the other inflamed sites, such as ears, paws and tail (secondary lesions) were observed and each rat was graded as to degree of inflammation and swelling present. The grading is based on a scale of 0 to 24, where 0 represents a complete absence of induced arthritic nodules and 24 represents the maximum degree of inflammation. The mean grade for each treated group is calculated and the effects of each compound are expressed as percent inhibition of the control grade.

[1] = oral dose 50 mg./kg. once daily days 0-13
[2] = oral dose 100 mg./kg. once daily days 0-13
[3] = oral dose 200 mg./kg. once daily days 0-13
[4] = oral dose 400 mg./kg. once daily days 0-13
[5] = oral dose 0.25 mg./kg. once daily days 0-13
[6] = oral dose 0.5 mg./kg. once daily days 0-13
[7] = oral dose 1 mg./kg. once daily days 0-13
[8] = oral dose 2 mg./kg. once daily days 0-13
[9] = oral dose 18.8 mg./kg. once daily days 0-13
[10] = oral dose 37.5 mg./kg. once daily days 0-13
[11] = oral dose 75 mg./kg. once daily days 0-13
[12] = oral dose 150 mg./kg. once daily days 0-13

SMILES: CC(=O)Oc1ccccc1C(=O)O [Aspirin]
% Inhibition of Swelling (primary lesion) Day 14 [1]: 23%
Mean Weight Gain Day 14 [1]: 56 grams
% Inhibition of Swelling (primary lesion) Day 21 [1]: 3%
Mean Weight Gain Day 21 [1]: 44 grams
% Inhibition of Swelling (primary lesion) Day 14 [2]: 36%
Mean Weight Gain Day 14 [2]: 48 grams
% Inhibition of Swelling (primary lesion) Day 21 [2]: 13%
Mean Weight Gain Day 21 [2]: 53 grams
% Inhibition of Swelling (primary lesion) Day 14 [3]: 48%
Mean Weight Gain Day 14 [3]: 40 grams
% Inhibition of Swelling (primary lesion) Day 21 [3]: 27%
Mean Weight Gain Day 21 [3]: 44 grams
% Inhibition of Swelling (primary lesion) Day 14 [4]: 73%
Mean Weight Gain Day 14 [4]: 41 grams
% Inhibition of Swelling (primary lesion) Day 21 [4]: 48%
Mean Weight Gain Day 21 [4]: 55 grams

SMILES: N#CCC(=O)c1cccs1 [B-oxo-2-thiophenepropionitrile, β-oxo-2-thiophenepropionitrile]
progression of the arthritis and associated joint deterioration (adjuvant arthritic rats, oral dosing, summary of Table I): appears to suppress the progression of the arthritis and associated joint deterioration
% Inhibition of Control Grade (secondary lesion) Day 14 [1]: 46%
% Inhibition of Swelling (primary lesion) Day 14 [1]: 46%
Mean Weight Gain Day 14 [1]: 56 grams
% Inhibition of Control Grade (secondary lesion) Day 21 [1]: 0%
% Inhibition of Swelling (primary lesion) Day 21 [1]: 18%
Mean Weight Gain Day 21 [1]: 48 grams
Dead/Treated At 21 Days (oral dose 50 mg./kg. once daily days 0-13, adjuvant arthritic rats): 3/36
% Inhibition of Control Grade (secondary lesion) Day 14 [2]: 58%
% Inhibition of Swelling (primary lesion) Day 14 [2]: 58%
Mean Weight Gain Day 14 [2]: 52 grams
% Inhibition of Control Grade (secondary lesion) Day 21 [2]: 10%
% Inhibition of Swelling (primary lesion) Day 21 [2]: 42%
Mean Weight Gain Day 21 [2]: 69 grams
Dead/Treated At 21 Days (oral dose 100 mg./kg. once daily days 0-13, adjuvant arthritic rats): 3/18
% Inhibition of Control Grade (secondary lesion) Day 14 [3]: 72%
% Inhibition of Swelling (primary lesion) Day 14 [3]: 72%
Mean Weight Gain Day 14 [3]: 34 grams
% Inhibition of Control Grade (secondary lesion) Day 21 [3]: 32%
% Inhibition of Swelling (primary lesion) Day 21 [3]: 29%
Mean Weight Gain Day 21 [3]: 54 grams
Dead/Treated At 21 Days (oral dose 200 mg./kg. once daily days 0-13, adjuvant arthritic rats): 2/18

SMILES: COc1ccc2c(c1)c(CC(=O)O)c(C)n2C(=O)c1ccc(Cl)cc1 [Indomethacin]
% Inhibition of Swelling (primary lesion) Day 14 [5]: 30%
Mean Weight Gain Day 14 [5]: 51 grams
% Inhibition of Swelling (primary lesion) Day 21 [5]: 4%
Mean Weight Gain Day 21 [5]: 57 grams
% Inhibition of Swelling (primary lesion) Day 14 [6]: 40%
Mean Weight Gain Day 14 [6]: 53 grams
% Inhibition of Swelling (primary lesion) Day 21 [6]: 20%
Mean Weight Gain Day 21 [6]: 51 grams
% Inhibition of Swelling (primary lesion) Day 14 [7]: 46%
Mean Weight Gain Day 14 [7]: 63 grams
% Inhibition of Swelling (primary lesion) Day 21 [7]: 19%
Mean Weight Gain Day 21 [7]: 65 grams
% Inhibition of Swelling (primary lesion) Day 14 [8]: 51%
Mean Weight Gain Day 14 [8]: 68 grams
% Inhibition of Swelling (primary lesion) Day 21 [8]: 24%
Mean Weight Gain Day 21 [8]: 68 grams

Mean Weight Gain Day 14 [9]: 50 grams
Mean Weight Gain Day 21 [9]: 45 grams
Mean Weight Gain Day 14 [10]: 53 grams
Mean Weight Gain Day 21 [10]: 53 grams
Mean Weight Gain Day 14 [11]: 51 grams
Mean Weight Gain Day 21 [11]: 50 grams
Mean Weight Gain Day 14 [12]: 40 grams
Mean Weight Gain Day 21 [12]: 50 grams
SMILES: CCCCC1C(=O)N(c2ccccc2)N(c2ccccc2)C1=O [Phenylbutazone]
% Inhibition of Swelling (primary lesion) Day 14 [9]: 31%
% Inhibition of Swelling (primary lesion) Day 21 [9]: 7%
% Inhibition of Swelling (primary lesion) Day 14 [10]: 56%
% Inhibition of Swelling (primary lesion) Day 21 [10]: 14%
% Inhibition of Swelling (primary lesion) Day 14 [11]: 62%
% Inhibition of Swelling (primary lesion) Day 21 [11]: 28%
% Inhibition of Swelling (primary lesion) Day 14 [12]: 75%
% Inhibition of Swelling (primary lesion) Day 21 [12]: 44%
